Experiment [1] concerns Plasmodium falciparum. The experiment can be described thus: Plasmodium falciparum sporozoite viability assay. Type of experiment: functional, organism-based. Particulars: for IC50: Plasmodium falciparum.
A short description of experiment [2]: microbe, parasite or virus in culture. Particulars: Mycobacterium tuberculosis, 72 h, read-out: pIC50 (converted).
Experiment [3] in a line: microbe, parasite or virus in culture. Conditions: Mycobacterium tuberculosis, 96 h, read-out: pIC50 (converted).
Experiment [4] addresses T1, Coenzyme A biosynthesis bifunctional protein CoaBC (Mycobacterium tuberculosis (strain ATCC 25618 / H37Rv), UniProt P9WNZ1).
T1 sequence (P9WNZ1 whole entry): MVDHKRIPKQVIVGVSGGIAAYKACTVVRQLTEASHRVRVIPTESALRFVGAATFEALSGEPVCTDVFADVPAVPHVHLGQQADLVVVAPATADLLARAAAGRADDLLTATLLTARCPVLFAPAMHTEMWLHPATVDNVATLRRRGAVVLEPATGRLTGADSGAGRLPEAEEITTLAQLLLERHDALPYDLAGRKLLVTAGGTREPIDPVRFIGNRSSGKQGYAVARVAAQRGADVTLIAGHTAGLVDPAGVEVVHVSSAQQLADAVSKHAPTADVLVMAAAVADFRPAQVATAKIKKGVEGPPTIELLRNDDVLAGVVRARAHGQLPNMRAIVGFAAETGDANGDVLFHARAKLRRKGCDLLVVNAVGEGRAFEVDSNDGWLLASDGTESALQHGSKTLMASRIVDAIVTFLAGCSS
Briefly: Biomol Green assay for MtCoaBC inhibitor, OD650 read. Type of experiment: functional.

Experiment [5] can be described thus: In vitro enzyme assay to detect hydrolysis of chlorophenol red-beta-D-[…] directly proportional to the number of Toxoplasma stably expressing beta-galactosidase. Type of experiment: functional, organism-based, Toxoplasma gondii. Particulars: Toxoplasma gondii.
Experiment [6] concerns Plasmodium falciparum. The experiment can be described thus: Calibr Malaria Delayed Death Assay SOP. It counts as functional, organism-based. Particulars: for IC50: Plasmodium falciparum.
The target of another experiment is T2, Histidine--tRNA ligase (Leishmania infantum, UniProt A4I591).
T2 sequence (A4I591 whole entry): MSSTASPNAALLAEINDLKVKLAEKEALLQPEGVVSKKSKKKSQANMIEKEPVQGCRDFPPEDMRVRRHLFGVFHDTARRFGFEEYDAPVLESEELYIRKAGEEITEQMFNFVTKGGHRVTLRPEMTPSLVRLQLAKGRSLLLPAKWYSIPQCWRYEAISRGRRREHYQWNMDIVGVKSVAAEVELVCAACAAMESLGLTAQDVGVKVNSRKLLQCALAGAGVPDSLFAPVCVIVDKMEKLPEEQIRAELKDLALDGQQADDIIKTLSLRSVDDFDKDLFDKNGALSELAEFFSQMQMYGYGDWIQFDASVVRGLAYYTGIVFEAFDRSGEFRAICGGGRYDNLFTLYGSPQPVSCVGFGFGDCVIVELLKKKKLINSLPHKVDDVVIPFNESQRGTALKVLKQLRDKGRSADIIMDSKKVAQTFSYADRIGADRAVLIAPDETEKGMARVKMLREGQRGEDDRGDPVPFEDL
Briefly: Leishmania infantum Histidine tRNA synthetase (LdHisRS). Type of experiment: functional.

The subject of another experiment is Leishmania donovani. The experiment can be described thus: Leishmania intramacrophage assay. Type of experiment: functional, organism-based. Particulars: Leishmania donovani.
The subject of the next experiment is Schistosoma mansoni. Briefly: High throughput screening of compounds against Schistosoma mansoni motility. Further details: dose or concentration left out as unconfirmed. It counts as functional.
Experiment [7] deals with Mycobacterium tuberculosis. Briefly: Cornell M. t heat shock assay. It counts as functional, organism-based. Particulars: Mycobacterium tuberculosis.

Values joined by “and” are separate entries in the source; they are usually repeats but may differ in a detail not shown here. Identical values can stand only once. Where only a bound is given, the exact number is not on record here.

As for `CCN1CCN(Cc2coc(-c3cccc(F)c3)n2)CC1`, in the experiment on Plasmodium falciparum [1], the pIC50 (in general, the negative decadic logarithm of the IC50, by convention in mol/L) is 6.19 and the IC50 was 800 nM.
`FC(F)(F)Oc1ccc(-c2noc([C@@H]3Cc4nc[nH]c4CN3)n2)cc1`: the pIC50 with Plasmodium falciparum [1] was determined as 6.357. In addition, the IC50 in the experiment on Plasmodium falciparum [1] was 221 nM; in experiment [2] it was more than 50100 nM; in experiment [3] it was more than 50100 nM.
As for `CC(C)c1nc2cc(NC(=O)c3n[nH]c4c3CCC4)ccc2n1C`, in the experiment on Plasmodium falciparum [1], the negative logarithm of the IC50 (pIC50) is 6.833 and 6.465. Also, the IC50 in experiment [4] is more than 30200 nM.
Turning to `CC(=O)Nc1ncc(S(=O)(=O)Nc2ccc3c(c2)OCCO3)s1`, in the experiment with Plasmodium falciparum [1], the negative-log IC50 (pIC50) is reported as 6.905 and the IC50 is 144 nM. Also, the IC50 in [5] is more than 50100 nM.
`CCc1n[nH]c(C(=O)NCCn2nccc2C)c1C` gave an IC50 with Plasmodium falciparum [1] of more than 10500 nM.
On the same count and under the same terms, the figure for `COc1cccc(-c2noc(C3CCN(CC(N)=O)C3)n2)c1` (stereo not given) is more than 10500 nM.
As for `COC(=O)CSCc1noc(-c2ccc(Cl)cc2)n1`, the pIC50 in the experiment on Plasmodium falciparum [1] was 6.573. For the same compound, the IC50 in the experiment on Plasmodium falciparum [1] is 454 nM; in [2] it was more than 50100 nM; in experiment [3], more than 50100 nM.
Turning to `COC(=O)CSCc1noc(-c2ccc(C)cc2)n1`, the negative-log IC50 (pIC50) in the experiment on Plasmodium falciparum [1] is 6.885 and 7.313. Moreover, the IC50 in experiment [2] is 24400 nM; in [3] it was more than 50100 nM.
In the experiment with Plasmodium falciparum [1], `Cc1cn2c(n1)C(CNCC1=Cc3cc(Cl)ccc3OC1)CCC2` (stereo not given) had a pIC50 of 5.932 and an IC50 of 908 nM. In the experiment with Plasmodium falciparum [6], this compound gave a pIC50 of 5.847 and an IC50 of 1660 nM.
On the same counts, the results for `Cc1cn2c(n1)C(CNCC1=Cc3ccccc3OC1)CCC2` (stereo not given) are 7.385, 62.3 nM, 5.983 and 903 nM.
As to `COc1cc(F)c(NCc2nc3ccccc3n2C)cc1OC`, the IC50 was 59700 nM and 57600 nM on Histidine--tRNA ligase; 260 nM in the experiment on Plasmodium falciparum [1].
On to `CC(C)C(=O)N1CCN(Cc2csc(-c3ncccn3)n2)CC1`, for which, in the experiment with Plasmodium falciparum [1], the pIC50 worked out at 5.96 and the IC50 was 1420 nM. In the experiment on Leishmania donovani, the IC50 was more than 50100 nM.
`Cc1ccsc1-c1cccc(-c2ccn(CC3CCNC3)n2)c1` (stereo not given) returned a negative logarithm of the IC50 (pIC50) with Plasmodium falciparum [1] of 5.798. Further, the values for the IC50 (in the experiment with Plasmodium falciparum [1]; in experiment [2]; in experiment [3]) were 2580 nM, 23800 nM and 21300 nM, respectively.
For the compound `CC(C)(C)n1cc(C2=CCN(CCc3ccccc3)CC2)cn1`, the “Percent Effect” value with Schistosoma mansoni turned out to be 26.35%. In the experiment with Plasmodium falciparum [1], this compound had a pIC50 of 5.875 and an IC50 of 1530 nM. In addition, in the experiment on Plasmodium falciparum [6], the pIC50 stood at 6.257 and the IC50 was 571 nM.
In the experiment on Plasmodium falciparum [1], `c1cnc(-c2nc(CN3CCN(CC4CC4)CC3)cs2)nc1` gave a pIC50 of 5.511 and an IC50 of 2260 nM. This compound gave an IC50 in the experiment on Leishmania donovani of more than 50100 nM.
`CC(C)c1nc2c(n1C)CCN(Cc1nc(-c3ccoc3)no1)C2`: in the experiment on Plasmodium falciparum [1], the negative-log IC50 (pIC50) is reported as 5.631 and the IC50 was 3150 nM.
Regarding `CCc1noc(CN(Cc2ccc3c(c2)OCO3)C2CCCC2)n1`, in the experiment with Plasmodium falciparum [1], the pIC50 was 5.474 and 5.085.
In the experiment on Plasmodium falciparum [1], `Cn1cnc2c1CCN(Cc1csc(-c3ccccc3F)n1)C2` gave a pIC50 of 6.45 and an IC50 of 363 nM.
With `Cc1cccc(NC2CCN(C(=O)Nc3ccc(F)c(F)c3)CC2)n1`, the figures for the IC50 (in the experiment with Plasmodium falciparum [1]; in experiment [7]) were 7620 nM and more than 49000 nM, respectively.
For `CCn1ncc2c1CCCC2NCc1cccc2c1OCO2` (stereo not given), in the experiment on Plasmodium falciparum [1], the negative logarithm of the IC50 (pIC50) amounted to 5.451 and the IC50 was 4370 nM.
On the same counts, the results for `CC(=O)Nc1nc(C(=O)N2CCCC(n3cncn3)C2)cs1` (stereo not given) are 5.727 and 3370 nM.
Taken in the same sequence, the figures for `Cc1cc(C)n(CC2CN(Cc3nc4ccccc4s3)CCO2)n1` (stereo not given) were 6.064 and 1720 nM.
For the compound `CCn1cc(NC(=O)Nc2ccc3c(c2)OCCO3)cn1`, in the experiment with Plasmodium falciparum [1], the negative logarithm of the IC50 (pIC50) was 7.305 and 6.856.
As to `CC(C)(C)c1cn2nc(N3CCCC(Cn4cncn4)C3)sc2n1` (stereo not given), in the experiment with Plasmodium falciparum [1], the pIC50 came to 4.991 and the IC50 was more than 10500 nM.
Turning to `c1ccc2sc(CN3CCCC3c3noc(C4CC4)n3)nc2c1` (stereo not given), the pIC50 in the experiment on Plasmodium falciparum [1] is 5.79 and 6.107.
In the experiment on Plasmodium falciparum [1], `CC1CCCN(Cc2csc(-c3ncccn3)n2)CC1` (stereo not given) showed a negative logarithm of the IC50 (pIC50) of 5.365 and an IC50 of 4800 nM.
With `CC(C)c1nc2c(n1C)CCN(Cc1nc(-c3ccsc3)no1)C2`, the negative logarithm of the IC50 (pIC50) in the experiment with Plasmodium falciparum [1] is 5.081 and 5.405.
On the same count and under the same terms, the same measure for `CN1CCOC(CNC(=O)CCCOc2ccccc2F)C1` (stereo not given): 5.757 and 6.214.
In the experiment with Plasmodium falciparum [1], `Cc1c(F)cc(C(=O)O)cc1S(=O)(=O)Nc1ccc2c(c1)OCCO2` had a pIC50 of 5.599 and an IC50 of 3790 nM.
Take `c1ccc(-c2noc(CN3CCc4cncnc4C3)n2)nc1`: in the experiment on Plasmodium falciparum [1], the pIC50 was 5.93 and 5.587.
For the compound `CC(C)c1n[nH]c(C(=O)Nc2ccnn2C(C)C)c1Br`, in the experiment on Plasmodium falciparum [1], the pIC50 was determined as 6.017 and the IC50 is 970 nM.
On the same counts, the results for `Cn1cnnc1C1CCN(C(=O)CCCOc2ccccc2F)CC1` are 6.053 and 1300 nM.
In the case of `c1ccc2sc(CN3CCOC(Cn4cccn4)C3)nc2c1` (stereo not given), the pIC50 in the experiment on Plasmodium falciparum [1] is 6.078 and 6.413.
For `c1ccc2sc(CN3CCOC(Cn4cncn4)C3)nc2c1` (stereo not given), in the experiment with Plasmodium falciparum [1], the pIC50 stood at 6.123 and the IC50 was 621 nM.
In the experiment with Plasmodium falciparum [1], `c1ccc(-c2nc(CN3CCc4c(ncn4C4CC4)C3)cs2)cc1` showed a pIC50 of 5.414 and an IC50 of 2990 nM.
Consider `O=C(Cc1ccc2c(c1)OCCO2)N1CCCC(n2cccn2)C1` (stereo not given), for which the negative logarithm of the IC50 (pIC50) in the experiment on Plasmodium falciparum [1] was < 4.98 and 5.311.
In the experiment with Plasmodium falciparum [1], `c1cc(OCc2ccc3c(c2)OCO3)ccc1CNC1CC1` had an IC50 of more than 10500 nM.
In the experiment with Plasmodium falciparum [1], `Cc1csc(NC(=O)c2cnc(C3CCCN3)cn2)n1.Cl` (stereo not given) had a pIC50 of 7.11 and an IC50 of 153 nM. In experiment [7], this compound showed an IC50 of more than 100000 nM.
On to `Cl.Clc1ccc(-c2ccc(C3CNCCO3)nc2)cc1` (stereo not given), for which, in the experiment on Plasmodium falciparum [1], the IC50 was 75 nM. Moreover, in the experiment with Plasmodium falciparum [6], the pIC50 was found to be 6.505 and the IC50 is 433 nM.
In the experiment with Plasmodium falciparum [1], `COc1ccc(-c2ccc(C3CNCCO3)nc2)cc1.Cl` (stereo not given) gave a pIC50 of 7.404 and an IC50 of 73 nM. In addition, in the experiment with Plasmodium falciparum [6], the pIC50 was 6.456 and the IC50 was 190 nM.
For the compound `Cc1ccc(-c2ccc(C3CNCCO3)nc2)cc1.Cl` (stereo not given), the figures for the pIC50 with Plasmodium falciparum [1] and in the experiment on Plasmodium falciparum [6] were 7.716 and 6.712, respectively. In addition, the IC50 is 23.1 nM in the experiment on Plasmodium falciparum [1] and 108 nM with Plasmodium falciparum [6].
Turning to `O=C(Nc1cccnc1)C1Cc2nc(-c3ccsc3)sc2N1CC1CC1.O=C(O)C(F)(F)F` (stereo not given), the IC50 at Histidine--tRNA ligase was 27400 nM and 35200 nM; with Plasmodium falciparum [1] it was 3000 nM. This compound also returned a pIC50 in the experiment on Plasmodium falciparum [1] of 5.393.
In the case of `CN(C)CCNC(=O)C1Cc2nc(-c3ccccc3)sc2N1CC1CC1` (stereo not given), the IC50 with Plasmodium falciparum [1] is 3590 nM; in [2], more than 50100 nM; in experiment [3], more than 50100 nM.

These data come from ChEMBL document CHEMBL3988442, “University of Dundee, Small-Polar-MMV Screening Library” (2021).
